Reference: publication PMC11056994, “Potentiating Activity of GmhA Inhibitors on Gram-Negative Bacteria” (Journal of Medicinal Chemistry, 2024)
Read-outs that look alike come from different tables or passages of the source.

Columns and labels:
E. coli GmhA = E. coli GmhA (Escherichia coli, UniProt P63224); type: biochemical; settings: for IC50: E. coli GmhA, luminescence assay, mean ± SD of at least 3 independent experiments
Procedure: The assay buffer “AB” contained 50 mM HEPES, pH 7.5, 1 mM MnCl2, 25 mM KCl, 0.012% Triton-X100, 1 mM dithiothreitol (DTT), and 0.1 μM myelin basic protein (MBP, Sigma, ref M1891). The following components were added in a white polystyrene Costar plate up to a final volume of 30 μL: 10 μL of inhibitor dissolved in DMSO/water 50/50 and 20 μL of GmhA of E. coli in AB. After 30 min of preincubation at room temperature, 30 μL of the substrate mixture in AB were added in each well to give a final volume of 60 μL. […] After 30 min of incubation at room temperature, 100 μL of the revelation mix were added to a final volume of 160 μL, including the following constituents at the respective final concentrations: 10,000 light units/mL luciferase (Sigma), 20 μM D-luciferin (Sigma), and 100 μM N-acetylcysteamine (Aldrich). Luminescence intensity was immediately measured on a Luminoskan instrument (Thermofisher) and converted into inhibition percentages. For IC50 determinations, the inhibitor was tested at 6 to 10 different concentrations, and the related inhibitions were fitted using XLFit 5 (IDBS) to a classical Langmuir equilibrium model with Hill slope, according to the equation: %inhibition = 100 c^n/(c^n + IC50^n), where c is the compound concentration and n is the Hill coefficient.

[1] = system: E. coli C7 (018:K1:H7) LPS biosynthesis; test: Inhibition of bacterial LPS biosynthesis (silver-stained LPS SDS-PAGE); type: cell-based; settings: for EC50: Escherichia coli
Procedure: The compounds to be tested were prepared in deionized water/DMSO (50/50) solutions and added (25 μL) in sterile culture microtubes. The test bacterial isolate was isolated on tryptic soy agar (TSA) overnight. Isolated colonies were cultured in 10 mL of LB medium at 37 °C up to an OD of typically 0.15. These exponentially growing bacteria were finally diluted to 5 × 10^5 cfu/mL and added in each well (225 μL) for incubation with the compounds at 37 °C for approximately 5 h, up to an OD of ≈0.2–0.4. Some test compounds, e.g., phospho-sugars are actively transported into the bacterial cytosol via the phospho-sugar transporter UhpT (Figure S3). 2.5 μL portion of a 10 mM water solution of glucose-6-phosphate (G6P, 100 μM final concentration, from Sigma) was added in the culture tube in order to induce UhpT expression. LPS extraction: Bacterial cultures were normalized via OD determination, pelleted, and washed with 1 mL of phosphate-buffered-saline (PBS). The pellets were then denatured for 10 min at 95–100 °C in 50 μL of 0.2% sodium dodecyl sulfate (SDS), β-mercaptoethanol 1%, glycerol 36%, Tris 30 mM, pH 7.4, and bromophenol blue 0.001%. Samples were cooled down to room temperature, supplemented with 1.5 μL of proteinase K at 20 mg/mL, incubated for 1 h at 55 °C, and centrifuged for 30 min at 13,000 rpm at 25 °C. The resulting supernatant, containing LPS, was finally analyzed by SDS-PAGE electrophoresis. LPS SDS-PAGE electrophoresis: Polyacrylamide gels (16%/4% acrylamide for separation and concentration, respectively) were prepared, loaded with 8 μL of LPS extracts, and migrated. Silver staining: Gels were incubated overnight in 5% acetic acid/40% ethanol/deionized water, treated by 1% periodic acid/5% acetic acid for 15 min, washed 4 times for 10 min in deionized water, and finally incubated for 18 min in the dark in a silver nitrate solution composed of 56 mL of 0.1 M NaOH (56 mL), 33% aq ammonia (4 mL), 5% AgNO3 (45 mL), and deionized water (195 mL). Gels were then washed extensively in deionized water for 30 min and incubated for 10–15 min (up to LPS band appearance) in the revelation mix composed of 300 mL of deionized water (300 mL), 36.5% formaldehyde (0.3 mL, Fluka), and 2.3 M citric acid (0.1 mL). The revelation was stopped by incubating the gels in 10% acetic acid for 5 min. Gels were finally washed in deionized water, numerized with a Samsung PL51 camera, and analyzed by ImageJ software. The percentage of inhibition of LPS heptosylation was defined as the relative area of the Re-LPS band compared to the cumulated areas of Re-LPS and Core-LPS bands.

E. coli C7 [2] = test: MIC of the compounds alone on E. coli C7; type: cell-based
Procedure: Then, we investigated the cytotoxicity and the ability of such inhibitors to potentiate the antimicrobial activity of macrolide and rifamycin antibiotics.
(§1) The compound to be tested was diluted in 50 mM HEPES buffer (pH 7.4) from 10 mM stock solution in DMSO. Five microliters of compound dilution or buffer were distributed in a sterile clear round-bottom 96-well polystyrene microplate (Corning). Five microliters of serial 2-fold dilutions of reference antibiotics [Erythromycin (Fluka), Rifampicin (Fluka)] in DMSO were added. An exponentially growing preculture of E. coli C7 (O18:K1:H7) in LB was diluted to 10^4 cfu/mL and supplemented with 100 μM G6P, and 90 μL of this suspension were added to the microplates. After overnight incubation at 37 °C, the MIC of the antibiotics were determined for each test compound concentration as the lowest antibiotic concentration for which no bacterial pellet is visible without magnification.

HepG2 cytotoxicity = type: cell-based; settings: human; n = 2
Procedure: HepG2 cells (LGC Promochem, ref HB-8065) in EMEM medium supplemented with fetal bovine serum (10%), Ampicillin (100 mg/L), and Streptomycin (100 mg/L) were plated on cell culture plates (Costar 3596, 2 × 10^4 cells/well) and incubated overnight at 37 °C in 5% CO2. The culture medium was then aspirated and replaced by supplemented EMEM (210 μL including 2% DMSO) containing dilutions of compounds. Plates were incubated overnight at 37 °C in 5% CO2. Cell viability was determined by the Celltiter Aqueous One Cell Proliferation Assay (G3581–80, Promega) according to the manufacturer’s recommendations, using a Multiskan absorption reader (490 nm).

E. coli C7 [3] = test: Sensitization to killing by the complement of human serum; type: cell-based; settings: E. coli C7 grown 5 h with 0.3 and 1 mM compound 24; in 30 min
Procedure: The E. coli C7 wild type and gmhA-deleted strains were isolated from TSA plates and grown overnight in 10 mL of LB broth at 35 °C. […] After 5 h of incubation under shaking at 37 °C, the bacterial inoculum was adjusted to 10^5 cfu/mL in 20% LB broth mixed with 80% human serum (Biopredic) and filtered on 0.45 μm pore size membranes and used as such, or further heated for 30 min at 56 °C for complement deactivation. A volume of 250 μL of each condition was finally incubated at 37 °C in microtubes, and aliquots of 10 μL were sampled at 0, 15, 30, 60, 120, and 180 min for bacterial enumeration in duplicate.

E. coli C7 gmhA- = test: Complementation of E. coli C7-gmhA- by H7P (LPS SDS-PAGE, UhpT transport); type: cell-based
Procedure: Figure S3: Role of UhpT phospho-sugar transporter in the transport of D-glycero-D-manno-heptose
7-phosphate (H7P). Complementation of E. coli C7-gmhA- by the GmhA product H7P. Silver-stained
LPS SDS-PAGE of E. coli C7 WT (lane 1) or gmhA- (lanes 2 -4). Culture in presence of 300 µM H7P (lane
100 µM glucose -6-phosphate (G6P) allows a strong transport of H7P, as evidenced by the restoration
(1 picture or pasted object on this page, not shown here)

E. coli C7 (O18:K1:H7) [4] = test: MIC determination of antibiotics combined with a GmhA inhibitor; type: cell-based; settings: Escherichia coli, n = 1
Procedure: as §1

E. coli C7 (O18:K1:H7) [5] = test: Time-kill kinetics of rifampicin in combination with compound 17; type: cell-based; settings: 17 300 μM alone or rifampicin 1 mg/L alone
Procedure: Rifampicin (Fluka) was diluted in DMSO, and the compound to be tested was diluted in water from 50 mM stock solution in 50 mM HEPES buffer, pH 7.4. Ten microliter of DMSO was distributed in sterile 1.5 mL polypropylene microtubes (Eppendorf). 2.5 μL of compound dilution or water, 2.5 μL of Rifampicin or DMSO, 2.5 μL of 10 mM G6P in water (100 μM final concentration), and 230 μL of LB were added to the microtubes. E. coli C7 (O18:K1:H7) was grown in 5 mL of LB broth at 37 °C until mid-log phase. The suspension was then diluted in LB to obtain a 100× inoculum of 5 × 10^7 cfu/mL, 2.5 μL of which were added to each microtube (5 × 10^5 cfu/mL final inoculum). The microtubes were incubated at 37 °C, and aliquots of 10 μL were sampled at 0, 2, 4, 6, 8, and 24 h for bacterial enumeration in duplicate.

GmhA = system: GmhA; set-up: method as in PMID 21922563; settings: cited from earlier work
wild-type E. coli strain = system: wild-type E. coli strain; set-up: method as in PMID 21922563; settings: cited from earlier work
[6] = E. coli C7 LPS biosynthesis by SDS-PAGE, mean ± SD of 3 experiments for 17 and 24, n = 1 for others, read-out: EC50
[7] = antibiotic alone, E. coli C7, 100 μM G6P, read-out: MIC alone
[8] = antibiotic combined with 100 μM 17, E. coli C7, 100 μM G6P, read-out: MIC +100 μM cpd 17

E. coli GmhA, sequence (P63224 whole entry): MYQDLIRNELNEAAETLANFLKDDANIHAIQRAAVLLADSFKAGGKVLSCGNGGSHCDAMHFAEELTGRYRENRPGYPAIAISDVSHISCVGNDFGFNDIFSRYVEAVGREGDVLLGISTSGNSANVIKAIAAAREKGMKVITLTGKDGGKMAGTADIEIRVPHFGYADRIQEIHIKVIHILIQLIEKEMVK

O=CN(O)C[C@H](O)[C@H](O)[C@H](O)CC(F)P(=O)([O-])O.[Na+] (some centres unmarked) [Compound 76]
GmhA inhibition IC50 (in words) (E. coli GmhA): low nanomolar range | EC50 [1]: 76 µM

O=C(NO)[C@@H](O)[C@H](O)[C@H](O)[C@H](O)COP(=O)(O)O [Compound 96]
GmhA inhibition IC50 (in words) (E. coli GmhA): low nanomolar range | IC50 (E. coli GmhA): 0.016 ± 0.006 µM | concentration above which bacterial growth is affected ([1]; E. coli culture of the LPS assay): > 100 µM | EC50 [1, 6]: > 100 µM

O=CN(O)C[C@@H](O)[C@H](O)[C@H](O)CCP(=O)(O)O [Compound 54]
IC50 (E. coli GmhA): 9.2 ± 1.6 µM | EC50 [1]: > 300 µM

O=CN(O)C[C@H](O)[C@H](O)[C@H](O)CCP(=O)([O-])O.[Na+] [Compound 24]
EC50 [1]: 22 ± 4 µM | MIC (E. coli C7 [2]; Escherichia coli, C7, read-out: MIC E. coli C7): > 1000 µM | MIC (E. coli C7 [2]; compound alone, n = 2, read-out: MIC E. coli C7): >1000 µM | CC50 (HepG2 cytotoxicity): > 1000 µM | reduction of the bacterial load in 80% human serum (E. coli C7 [3]): 3 log

O=C[C@@H](O)[C@@H](O)[C@H](O)[C@H](O)[C@H](O)COP(=O)(O)O [H7P, D-glycero-D-manno-heptose 7-phosphate]
LPS profile restoration in gmhA- strain (E. coli C7 gmhA-; 300 µM H7P, without G6P (lane 3)): restores some full length LPS | LPS profile restoration in gmhA- strain (E. coli C7 gmhA-; H7P with UhpT induction by 100 µM glucose-6-phosphate (lane 4)): full LPS profile

O=CN(O)C[C@H](O)[C@H](O)[C@H](O)C(O)CP(=O)(O)O (some centres unmarked) [Compound 31]
IC50 (E. coli GmhA): 0.25 ± 0.02 µM | EC50 [1]: 590 µM

CO[C@H]1/C=C/O[C@@]2(C)Oc3c(C)c(O)c4c(O)c(c(/C=N/N5CCN(C)CC5)c(O)c4c3C2=O)NC(=O)/C(C)=C\C=C\[C@H](C)[C@H](O)[C@@H](C)[C@@H](O)[C@@H](C)[C@H](OC(C)=O)[C@@H]1C [Rifampicin]
MIC (E. coli C7 (O18:K1:H7) [4]; [7]): 4 µg/mL | MIC (E. coli C7 (O18:K1:H7) [4]; [8]): 0.25 µg/mL | effect on bacterial growth, compound alone (E. coli C7 (O18:K1:H7) [5]): did not alter at all the bacterial growth

COC1O[C@H]([C@H](O)COP(=O)(O)O)[C@@H](O)[C@H](O)[C@H]1O (stereo partly drawn) [methyl 7-O-phosphoryl-D-glycero-D-gluco-heptopyranoside]
IC50 values (in words) (GmhA): low micromolar range | heptosylation inhibition at 1 mM (wild-type E. coli strain): too high to demonstrate heptosylation inhibition

O=CN(O)C[C@H](O)[C@H](O)[C@H](O)C(O)C(O)P(=O)(O)O (some centres unmarked) [Compound 27]
IC50 (E. coli GmhA): 2.3 ± 0.6 µM | EC50 [1]: > 3000 µM

O=CN(O)C[C@H](O)C[C@H](O)CCP(=O)(O)O [Compound 68]
IC50 (E. coli GmhA): 3 ± 0.2 µM | EC50 [1, 6]: 1200 µM

O=CN(O)C[C@H](O)[C@H](O)[C@H](O)CP(=O)(O)O [Compound 20]
IC50 (E. coli GmhA): 2.2 ± 0.5 µM | EC50 [1, 6]: > 3000 µM

O=CN(O)C[C@H](O)[C@H](O)[C@H](O)CC(O)P(=O)(O)O (some centres unmarked) [Compound 41]
IC50 (E. coli GmhA): 0.075 ± 0.009 µM | EC50 [1]: 750 µM

O=CN(O)C[C@H](O)[C@H](O)[C@H](O)CC(F)(F)P(=O)(O)O [Compound 84]
EC50 [1]: 510 µM

CC[C@H]1OC(=O)[C@H](C)[C@@H](O[C@H]2C[C@@](C)(OC)[C@@H](O)[C@H](C)O2)[C@H](C)[C@@H](O[C@@H]2O[C@H](C)C[C@H](N(C)C)[C@H]2O)[C@](C)(O)C[C@@H](C)C(=O)[C@H](C)[C@@H](O)[C@]1(C)O [Erythromycin]
MIC (E. coli C7 (O18:K1:H7) [4]; [7]): 32 µg/mL | MIC (E. coli C7 (O18:K1:H7) [4]; [8]): 1 µg/mL

O=CN(O)C[C@H](O)[C@H](O)[C@H](O)/C=C/P(=O)(O)O [Compound 25]
IC50 (E. coli GmhA): 0.15 ± 0.03 µM | EC50 [1]: 1300 µM
